In publication PMC8227885 (Viruses, 2021):

Each substance was assayed on RBD.
Format: binding, SARS-CoV-2

Substance	biosensor activity with RBD-Lg, ACE2 deletions and mutants
Sm-ACE2-18-515	significantly lower than that of Sm-ACE2-18-615/RBD-Lg
K353A	almost abolished biosensor activity
ACE2 K31	significantly reduced biosensor activity
Sm-ACE2-18–415	reduced biosensor activity
